Experimental findings from PubChem BioAssay (NCI) are described below.

Among the test systems are SK-MEL-5 melanoma; EKVX NSCLC; HCC-2998 colon; MDA-N; SR leukemia; OVCAR-4 ovarian; CAKI-1 renal; SN12C renal; NCI-H226 lung; HOP-92 NSCLC; PC-3 prostate; MALME-3M melanoma; MDA-MB-231 breast.
What all share (assay): DTP human tumour cell line panel, 48 h

Values joined by “and” are separate entries in the source; they are usually repeats but may differ in a detail not shown here. Equal entries are not always repeated.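 These data come from cells grown in 96-well plates and exposed to compound for 48 hours at five concentrations. GI50 marks 50% less growth. TGI is the concentration that stops growth completely.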 Where a SMILES comes first, the peptide text is derived from it. The star is where a group is joined. Cbz = O=C(OCc1ccccc1)*; Boc = CC(C)(C)OC(=O)*; OSu = O=C1CCC(=O)N1O*; Bn = c1ccc(C*)cc1

In the case of `O=c1c2cc(I)ccc2nc(-c2cccs2)n1O`, the TGI in the test on SK-MEL-5 melanoma was more than 100 µM; with EKVX NSCLC, more than 100 µM; with HCC-2998 colon, more than 100 µM; in the test on MDA-N, more than 100 µM; with SR leukemia it was more than 100 µM; with OVCAR-4 ovarian it was 96.9 µM. The TGI in the test on CAKI-1 renal was 98.4 µM; in the test with SN12C renal, more than 100 µM; in the test on NCI-H226 lung it was more than 100 µM; with HOP-92 NSCLC it was 79.6 µM; with PC-3 prostate it was more than 100 µM.
Turning to `CC(C)(C)OC(=O)NC(Cc1ccc(OCc2ccccc2)cc1)C(=O)NC(CCCCNC(=O)OCc1ccccc1)C(=O)NC(CCCCNC(=O)OCc1ccccc1)C(=O)ON1C(=O)CCC1=O` (stereo not given) (Boc-Tyr(Bn)-Lys(Cbz)-Lys(Cbz)-OSu; configuration not given here), the TGI is more than 100 µM in the test with SK-MEL-5 melanoma; more than 100 µM in the test on EKVX NSCLC; 45.4 µM with MDA-N; more than 100 µM with SR leukemia; more than 100 µM in the test on OVCAR-4 ovarian; more than 100 µM in the test on CAKI-1 renal. Moreover, the TGI with MALME-3M melanoma and in the test on HOP-92 NSCLC was more than 100 µM in each case.
As for `CC[C@@]12CCC(=S)N(CCSc3ccccc3)[C@@H]1c1c(n(S(=O)(=O)c3ccc(OC)cc3)c3ccccc13)CC2`, the TGI in the test with SK-MEL-5 melanoma, with EKVX NSCLC, in the test with SR leukemia, in the test with MDA-MB-231 breast, with CAKI-1 renal and with MALME-3M melanoma was more than 100 µM throughout. Further, the concentration for total growth inhibition (TGI) with SN12C renal, in the test with NCI-H226 lung, in the test with HOP-92 NSCLC and with PC-3 prostate was more than 100 µM each time.
Regarding `COc1ccc2c(c1)CC[C@@H]1C2CC[C@]2(C)C(=C=CP(=O)(O)O)CCC12` (stereo not given in full), the TGI in the test on SK-MEL-5 melanoma, in the test on EKVX NSCLC, in the test on HCC-2998 colon, in the test on MDA-N, in the test on SR leukemia and with OVCAR-4 ovarian was more than 100 µM in each case. In addition, the TGI in the test with CAKI-1 renal, in the test on MALME-3M melanoma, in the test with SN12C renal, in the test on NCI-H226 lung, with HOP-92 NSCLC and in the test on PC-3 prostate was more than 100 µM each time.
As for `CCC(=C/[C@H](C)C/C=C/C(C)=C/[C@@H](C)C(=O)[C@@H](C)[C@H](O)[C@@H](C)CC)/C=C/[C@H]1CC=CC(=O)O1`, the TGI in the test with SK-MEL-5 melanoma is 0.0182 µM; in the test on EKVX NSCLC, 12 µM and 14.3 µM; in the test on HCC-2998 colon it was less than 0.0012 µM; in the test on MDA-N, 0.00339 µM; in the test with OVCAR-4 ovarian, 12 µM; in the test with CAKI-1 renal, 2.88 µM. The TGI was 2.31 µM in the test on MALME-3M melanoma; 4.26 µM in the test with HOP-92 NSCLC; 1.45 µM and 11.5 µM in the test with PC-3 prostate. For the same molecule, the GI50 with NCI-H226 lung was less than 0.0012 µM.
Consider `CC1(Cl)CC(C)(/C=C/Cl)C(Cl)CC1Cl` (stereo not given), for which the TGI in the test with SK-MEL-5 melanoma amounted to 30.2 µM; in the test with EKVX NSCLC, 26.4 µM; in the test with HCC-2998 colon, 32 µM; in the test with SR leukemia, 44.6 µM; with OVCAR-4 ovarian, 37.1 µM; with CAKI-1 renal it was 33.3 µM. In addition, the TGI in the test on MALME-3M melanoma was 29.6 µM; in the test with SN12C renal it was 31 µM; in the test with HOP-92 NSCLC, 16.8 µM.
As to `CCCCCCCCCCCCC1N=C(N)NC2(CCCO2)C1C(=O)OC` (stereo not given), the TGI was 23.7 µM with SK-MEL-5 melanoma; 36.6 µM in the test with EKVX NSCLC; more than 39.5 µM in the test with HCC-2998 colon; more than 20.9 µM with SR leukemia; 13.3 µM with MDA-MB-231 breast; 26.4 µM with OVCAR-4 ovarian. For the same molecule, the TGI with CAKI-1 renal was 30.6 µM; in the test on MALME-3M melanoma, 38 µM; in the test with SN12C renal, 34.2 µM; with NCI-H226 lung, 36.9 µM; in the test with HOP-92 NSCLC it was 17.2 µM; with PC-3 prostate, 8.57 µM.
Consider `Cn1c(NC(=O)NC23CC4CC(CC(C4)C2)C3)nc2ccccc21`, for which the TGI in the test on SK-MEL-5 melanoma is more than 100 µM; in the test on EKVX NSCLC, more than 100 µM; in the test on HCC-2998 colon, more than 100 µM; in the test on SR leukemia it was more than 100 µM; with OVCAR-4 ovarian, 28.5 µM; in the test with CAKI-1 renal, more than 100 µM. In addition, the total growth inhibition concentration (TGI) in the test on MALME-3M melanoma was 81.6 µM; in the test on SN12C renal it was more than 100 µM; in the test with NCI-H226 lung, more than 100 µM; in the test on HOP-92 NSCLC, 90.6 µM.
As for `S=c1[nH]nc(CCCCCCCCc2n[nH]c(=S)o2)o1`, the concentration for total growth inhibition (TGI) in the test with SK-MEL-5 melanoma, with EKVX NSCLC, in the test on MDA-N, with MDA-MB-231 breast, in the test on OVCAR-4 ovarian and with CAKI-1 renal was more than 100 µM each time. Also, the TGI in the test with SN12C renal, in the test with NCI-H226 lung and in the test on PC-3 prostate was more than 100 µM each time.
Turning to `CN(C)C(=O)Oc1ccc(C(=S)Nc2ccccc2)cc1`, the TGI in the test on SK-MEL-5 melanoma is 55.6 µM; in the test on EKVX NSCLC it was more than 100 µM; in the test on HCC-2998 colon it was more than 100 µM; with MDA-N it was more than 100 µM; in the test on SR leukemia it was more than 100 µM; in the test with OVCAR-4 ovarian, more than 100 µM. Further, the TGI with CAKI-1 renal, with MALME-3M melanoma and in the test with PC-3 prostate was more than 100 µM throughout.
With `c1ccc(Nc2nnc(CCCCCCCCc3nnc(Nc4ccccc4)o3)o2)cc1`, the TGI with SK-MEL-5 melanoma, with EKVX NSCLC, with HCC-2998 colon, with MDA-MB-231 breast, with OVCAR-4 ovarian and with CAKI-1 renal was more than 100 µM throughout. Besides, the TGI in the test on MALME-3M melanoma, in the test on SN12C renal, with NCI-H226 lung and with PC-3 prostate was more than 100 µM each time.
With `O=C(O)/C=C/c1ccncc1`, the TGI in the test with SK-MEL-5 melanoma, in the test with EKVX NSCLC, in the test with HCC-2998 colon, in the test on SR leukemia, in the test on OVCAR-4 ovarian and with CAKI-1 renal was more than 100 µM throughout. The TGI with MALME-3M melanoma, in the test on SN12C renal, in the test with NCI-H226 lung and in the test on HOP-92 NSCLC was more than 100 µM each time.
As to `COc1ccc(C23OCC(Cc4cc(OC)c(OC)cc42)C3CO)cc1OC` (stereo not given), the total growth inhibition concentration (TGI) in the test on SK-MEL-5 melanoma, in the test with EKVX NSCLC, with HCC-2998 colon, in the test with SR leukemia, with MDA-MB-231 breast and with OVCAR-4 ovarian was more than 100 µM in each case. In addition, the TGI with CAKI-1 renal, in the test with MALME-3M melanoma, with NCI-H226 lung and with PC-3 prostate was more than 100 µM in each case.
